According to US6461997B1, “Triazole sulfones having herbicidal activity” (Monsanto Technology LLC, priority 1999, dated 2002):

Legend:
[1] = test system: GALAP (catchweed bedstraw); assay: Pre-emergence herbicidal activity, cool season; assay type: in vivo, Galium aparine; settings: lowest tested rate with 80% or greater inhibition; rates 300, 100, 30, 10 g/ha; about 14 days
Method: (§1) Tables 5 to 8 summarize results of tests conducted as described below to determine the pre-emergence herbicidal activity, in the form of a GR80 value, of illustrative compounds of this invention. […] Compounds of the invention were typically applied at rates of 300, 100, 30, and 10 g/ha. Where herbicidal activity was evident but 80% inhibition was not achieved at the highest rate tested, an asterisk (*) is shown in the following tables.
(§2) The pre-emergence tests were conducted by the following procedure. Topsoil was sieved to pass through a 1.27 cm screen. Fertilizer was added to the topsoil and the mixture was then sterilized by heating. The topsoil mixture was placed in a pot and compacted to a depth of 1.0 to 1.25 cm from the top of the pot. Seeds of each of several monocotyledonous and dicotyledonous annual plant species were placed on top of the soil. Additional soil was subsequently placed over the seeds to level-fill the pot. A known amount of each test compound dissolved or suspended in an appropriate organic solvent was diluted with a 50:50 mix of acetone and water and applied to the surface of the soil. After treatment the plants were placed in a greenhouse where they received 0.64 cm of overhead irrigation. All subsequent watering consisted of a light overhead mist and/or subirrigation as needed for germination and growth. Tables 5 and 6 below relate to warm season plant species which were placed after pre-emergence treatment in a greenhouse with a 30/21° C. day/night temperature regime. Tables 7 and 8 below relates to cool season plant species placed after pre-emergence treatment in a greenhouse or growth chamber with an 18/13° C. day/night temperature regime.
(§3) Approximately 14 days after planting and treating, the plants were observed and herbicidal efficacy recorded as percent inhibition by comparison with untreated plants.
(§4) The plant species usually regarded as weeds which were utilized in the tests are identified in the tables below according to the following legend, in which “d” indicates a dicotyledonous species and “m” a monocotyledonous species. All monocotyledonous species included in the tests herein are grasses.

[2] = test system: VERPE (creeping speedwell); assay: Pre-emergence herbicidal activity, cool season; assay type: in vivo, Veronica persicaria; settings: lowest tested rate with 80% or greater inhibition; rates 300, 100, 30, 10 g/ha; about 14 days
Method: as §1, §2, §3, §4

[3] = test system: SINAR (wild mustard); assay: Pre-emergence herbicidal activity, cool season; assay type: in vivo, Sinapis arvensis; settings: lowest tested rate with 80% or greater inhibition; rates 300, 100, 30, 10 g/ha; about 14 days
Method: as §1, §2, §3, §4

[4] = test system: POLCO (wild buckwheat); assay: Pre-emergence herbicidal activity, cool season; assay type: in vivo, Polygonum convolvulus; settings: lowest tested rate with 80% or greater inhibition; rates 300, 100, 30, 10 g/ha; about 14 days
Method: as §1, §2, §3, §4

[5] = test system: PANMI (wild proso millet); assay: Pre-emergence herbicidal activity, warm season; assay type: in vivo, Panicum miliaceum; settings: GR80 = lowest tested rate (300, 100, 30, 10 g/ha) with 80% or greater inhibition; approx. 14 days after treating; 30/21° C.
Method: as §1, §2, §3, §4

[6] = test system: LAMPU (purple deadnettle); assay: Pre-emergence herbicidal activity, cool season; assay type: in vivo, Lamium purpureum; settings: lowest tested rate with 80% or greater inhibition; rates 300, 100, 30, 10 g/ha; about 14 days
Method: as §1, §2, §3, §4

[7] = test system: ALOMY (blackgrass); assay: Pre-emergence herbicidal activity, cool season; assay type: in vivo, Alopecurus myosuroides; settings: GR80 = lowest tested rate (300, 100, 30, 10 g/ha) with 80% or greater inhibition; approx. 14 days after treating; 18/13° C.
Method: as §1, §2, §3, §4

[8] = test system: SASKR (russian thistle); assay: Pre-emergence herbicidal activity, cool season; assay type: in vivo, Salsola kali; settings: lowest tested rate with 80% or greater inhibition; rates 300, 100, 30, 10 g/ha; about 14 days
Method: as §1, §2, §3, §4

[9] = test system: CHEAL (common lambsquarters); assay: Pre-emergence herbicidal activity, warm season; assay type: in vivo, Chenopodium album; settings: GR80 = lowest tested rate (300, 100, 30, 10 g/ha) with 80% or greater inhibition; approx. 14 days after treating; 30/21° C.
Method: as §1, §2, §3, §4

[10] = test system: STEME (common chickweed); assay: Pre-emergence herbicidal activity, cool season; assay type: in vivo, Stellaria media; settings: lowest tested rate with 80% or greater inhibition; rates 300, 100, 30, 10 g/ha; about 14 days
Method: as §1, §2, §3, §4

[11] = test system: DIGSA (large crabgrass); assay: Pre-emergence herbicidal activity, warm season; assay type: in vivo, Digitaria sanguinalis; settings: GR80 = lowest tested rate (300, 100, 30, 10 g/ha) with 80% or greater inhibition; approx. 14 days after treating; 30/21° C.
Method: as §1, §2, §3, §4

[12] = test system: AGSST (creeping bentgrass); assay: Pre-emergence herbicidal activity, cool season; assay type: in vivo, Agrostis stolonifera; settings: GR80 = lowest tested rate (300, 100, 30, 10 g/ha) with 80% or greater inhibition; approx. 14 days after treating; 18/13° C.
Method: as §1, §2, §3, §4

[13] = test system: ECHCG (barnyardgrass); assay: Pre-emergence herbicidal activity, warm season; assay type: in vivo, Echinochloa crus-galli; settings: GR80 = lowest tested rate (300, 100, 30, 10 g/ha) with 80% or greater inhibition; approx. 14 days after treating; 30/21° C.
Method: as §1, §2, §3, §4

[14] = test system: SORHA (johnsongrass (seedling)); assay: Pre-emergence herbicidal activity, warm season; assay type: in vivo, Sorghum halepense; settings: GR80 = lowest tested rate (300, 100, 30, 10 g/ha) with 80% or greater inhibition; approx. 14 days after treating; 30/21° C.
Method: as §1, §2, §3, §4

[15] = test system: POROL (common purslane); assay: Pre-emergence herbicidal activity, warm season; assay type: in vivo, Portulaca oleracea; settings: GR80 = lowest tested rate (300, 100, 30, 10 g/ha) with 80% or greater inhibition; approx. 14 days after treating; 30/21° C.
Method: as §1, §2, §3, §4

[16] = test system: SETVI (green foxtail); assay: Pre-emergence herbicidal activity, cool season; assay type: in vivo, Setaria viridis; settings: GR80 = lowest tested rate (300, 100, 30, 10 g/ha) with 80% or greater inhibition; approx. 14 days after treating; 18/13° C.
Method: as §1, §2, §3, §4

[17] = test system: SETFA (giant foxtail); assay: Pre-emergence herbicidal activity, warm season; assay type: in vivo, Setaria faberi; settings: GR80 = lowest tested rate (300, 100, 30, 10 g/ha) with 80% or greater inhibition; approx. 14 days after treating; 30/21° C.
Method: as §1, §2, §3, §4

[18] = test system: BRAPP (broadleaf signalgrass); assay: Pre-emergence herbicidal activity, warm season; assay type: in vivo, Brachiaria platyphylla; settings: GR80 = lowest tested rate (300, 100, 30, 10 g/ha) with 80% or greater inhibition; approx. 14 days after treating; 30/21° C.
Method: as §1, §2, §3, §4

[19] = test system: SOLNI (black nightshade); assay: Pre-emergence herbicidal activity, warm season; assay type: in vivo, Solanum nigrum; settings: GR80 = lowest tested rate (300, 100, 30, 10 g/ha) with 80% or greater inhibition; approx. 14 days after treating; 30/21° C.
Method: as §1, §2, §3, §4

| SMILES | Pre-emergence activity GR80, GALAP [1] | Pre-emergence activity GR80, VERPE [2] | Pre-emergence activity GR80, SINAR [3] | Pre-emergence activity GR80, POLCO [4] | Pre-emergence activity (GR80) PANMI [5] | Pre-emergence activity GR80, LAMPU [6] | Pre-emergence activity (GR80) ALOMY [7] | Pre-emergence activity GR80, SASKR [8] | Pre-emergence activity (GR80) CHEAL [9] | Pre-emergence activity GR80, STEME [10] | Pre-emergence activity (GR80) DIGSA [11] | Pre-emergence activity (GR80) AGSST [12] | Pre-emergence activity (GR80) ECHCG [13] | Pre-emergence activity (GR80) SORHA [14] | Pre-emergence activity (GR80) POROL [15] | Pre-emergence activity (GR80) SETVI [16] | Pre-emergence activity (GR80) SETFA [17] | Pre-emergence activity (GR80) BRAPP [18] | Pre-emergence activity (GR80) SOLNI [19] |
| --- | --- | --- | --- | --- | --- | --- | --- | --- | --- | --- | --- | --- | --- | --- | --- | --- | --- | --- | --- |
| CN(C(=O)n1cnc(S(=O)(=O)C(F)F)n1)c1ccccc1 [Example 27] | 300 g/ha | 300 g/ha | [empty] | 30 g/ha | 100 g/ha | 300 g/ha | 300 g/ha | 300 g/ha | 300 g/ha | [empty] |  |  |  |  |  |  |  |  |  |
| C#CCN(C)C(=O)n1cnc(S(=O)(=O)C(F)F)n1 [Example 31] | [empty] | [empty] | [empty] | [empty] |  | [empty] |  | [empty] |  | [empty] | 300 g/ha |  |  |  |  |  |  |  |  |
| O=C(N1CCOCC1)n1cnc(S(=O)(=O)C(F)(F)Br)n1 [Example 36] | 300 g/ha | [empty] | [empty] | [empty] |  | 300 g/ha |  | [empty] | 300 g/ha | [empty] |  |  |  |  |  |  |  |  |  |
| CN(C)C(=O)n1cnc(S(=O)(=O)C(F)(F)Br)n1 [Example 37] | [empty] | [empty] | [empty] | [empty] | 300 g/ha | 300 g/ha |  | [empty] |  | 300 g/ha | 300 g/ha | 100 g/ha | 300 g/ha | 300 g/ha | 300 g/ha |  |  |  |  |
| C=CCN(C)C(=O)n1cnc(S(=O)(=O)C(F)(F)Br)n1 [Example 41] | [empty] | 100 g/ha | [empty] | [empty] | 300 g/ha | [empty] | 300 g/ha | [empty] |  | [empty] |  | 30 g/ha |  |  |  |  |  |  |  |
| CON(C)C(=O)n1cnc(S(=O)(=O)C(F)(F)Br)n1 [Example 45] | [empty] | [empty] | 300 g/ha | 100 g/ha |  | [empty] |  | [empty] | 300 g/ha | 300 g/ha |  |  |  |  |  | 300 g/ha |  |  |  |
| COCCN(C)C(=O)n1cnc(S(=O)(=O)C(F)(F)C(F)F)n1 [Example 64] | 300 g/ha | 30 g/ha | 100 g/ha | 100 g/ha | 100 g/ha | 300 g/ha | 300 g/ha | 10 g/ha |  | 100 g/ha | 300 g/ha | 100 g/ha |  |  | 300 g/ha | 100 g/ha | 300 g/ha | 300 g/ha |  |
| C=CCN(C)C(=O)n1cnc(S(=O)(=O)C(F)(F)C(F)F)n1 [Example 65] | 30 g/ha | 100 g/ha | 300 g/ha | 100 g/ha | 300 g/ha | 100 g/ha | 100 g/ha | [empty] | 300 g/ha | 300 g/ha |  | 300 g/ha |  |  |  | 100 g/ha |  |  |  |
| CN(Cc1ccccc1)C(=O)n1cnc(S(=O)(=O)C(F)(F)C(F)F)n1 [Example 68] | 300 g/ha | [empty] | 300 g/ha | 300 g/ha | 300 g/ha | [empty] |  | [empty] |  | [empty] |  |  |  |  |  | 300 g/ha | 300 g/ha |  | 300 g/ha |
| CN(C)C(=O)n1cnc(S(=O)(=O)C(F)(F)C(F)(F)Br)n1 [Example 73] | 100 g/ha | 100 g/ha | 100 g/ha | [empty] | 100 g/ha | 300 g/ha |  | 100 g/ha |  | 300 g/ha |  | 100 g/ha | 300 g/ha | 300 g/ha |  | 300 g/ha |  |  |  |
| C#CCN(C)C(=O)n1cnc(S(=O)(=O)C(F)(F)C(F)(F)Br)n1 [Example 78] | [empty] | 30 g/ha | 30 g/ha | [empty] |  | 100 g/ha |  | 100 g/ha |  | [empty] |  |  |  |  |  |  |  |  | 300 g/ha |
| CCN(CC)C(=S)n1cnc(S(=O)(=O)C(F)(F)C(F)(F)Br)n1 [Example 82] | [empty] | 300 g/ha | 300 g/ha | 300 g/ha | 300 g/ha | 300 g/ha |  | [empty] | 300 g/ha | 300 g/ha |  | 300 g/ha |  | 300 g/ha | 30 g/ha | 100 g/ha | 300 g/ha | 300 g/ha |  |
| C=CCN(C)C(=O)n1cnc(S(=O)(=O)C(F)(F)Cl)n1 [Example 89] | 300 g/ha | [empty] | 300 g/ha | 100 g/ha | 300 g/ha | 100 g/ha |  | 300 g/ha |  | 100 g/ha | 100 g/ha | 100 g/ha |  |  | 100 g/ha | 100 g/ha |  |  |  |
